Test results published in patent US10231972B2, “Combination of a 6-oxo-1,6-dihydro-pyridazine derivative having anti-cancer activity with a quinazoline derivative” (MERCK PATENT GMBH, priority 2014, dated 2019).

Tests used:
Assay type in all cases: in vivo
[1] = tested on: human U87-MG tumor cells; assay: Human U87-MG xenograft model; conditions: oral daily; for median tumor volume (TV) change: day 12, female CD-1 nude mice, s.c. U87-MG, 100 mg/kg pyridazinone, 30 mg/kg quinazoline, alone or combined; for median time until tumor progression: progression = TV change >73%, treatment up to 65 days, CD-1 nude mice
Description: Background: The human U87-MG glioblastoma model is an autocrine HGF/c-Met expressing tumor model with an activated c-Met pathway. This model carries a mutation of PTEN, a negative regulator of the PI3K signaling.
(§1) Method: Female CD-1 nude mice (6-8 weeks old) where subcutaneously injected with human U87-MG tumor cells and were divided into treatment groups (8 animals per group) after the tumors were established. Respective groups were administered orally with the 3-(1-{3-[5-(1-Methyl-piperidin-4-ylmethoxy)-pyrimidin-2-yl]-benzyl}-6-oxo-1,6-dihydro-pyridazin-3-yl)-benzonitrile hydrochloride hydrate (100 mg/kg) or 4-[(S)-2-azetidin-1-yl-1-(4-chloro-3-trifluoromethyl-phenyl)-ethylamino]-quinazoline-8-carboxylic acid amide (30 mg/kg) daily in monotherapy or in combination until tumors progressed or until treatment period of 65 days. At day 12, the day of vehicle group termination, median tumor volume (TV) change in % were calculated. Statistical analysis has been done with two way-RM ANOVA. Median time until tumor progression under treatment has been calculated at the end of the study. Tumor progression is defined as tumor volume change >73%.

[2] = tested on: human H596 tumor cells; assay: Human HGF dependent H596 lung xenograft model; conditions: oral daily; for median tumor volume change: day 14, female humanized HGF SCID mice, s.c. H596, 100 mg/kg pyridazinone, 30 mg/kg (from day 12 20 mg/kg) quinazoline, alone or combined; for median time until tumor progression: progression = TV change >73%, treatment up to 66 days, humanized HGF SCID mice
From the text: Background: The human H596 lung model is c-Met expressing paracrine HGF/c-Met tumor model which a juxta-membran (JM) domain mutation of c-Met which lead to prolonged c-Met activation after HGF ligand binding. The model expresses […] with an activated c-Met pathway. This model carries a PI3KCA mutation (literature data).
Method: Female humanized HGF SCID mice (8-10 weeks old) where subcutaneously injected with human H596 tumor cells and were divided into treatment groups (8 animals per group) after the tumors were established.
Respective groups were administered orally with the 3-(1-{3-[5-(1-Methyl-piperidin-4-ylmethoxy)-pyrimidin-2-yl]-benzyl}-6-oxo-1,6-dihydro-pyridazin-3-yl)-benzonitrile hydrochloride hydrate (100 mg/kg) or 4-[(S)-2-azetidin-1-yl-1-(4-chloro-3-trifluoromethyl-phenyl)-ethylamino]-quinazoline-8-carboxylic acid amide (30 mg/kg, from day 12 20 mg/kg) daily in monotherapy or in combination until tumors progressed or until treatment period of 66 days. At day 14, the day when all animals in the vehicle group were still present, median tumor volume change in % were calculated. Statistical analysis has been done with two way-RM ANOVA. Median time until tumor progression under treatment has been calculated at the end of the study. Tumor progression is defined as tumor volume change >73%.

[3] = tested on: human NCI-H441 tumor cells; assay: Human NCI-H441 lung xenograft model; conditions: oral daily; for median tumor volume change: day 21, female CD-1 nude mice, s.c. NCI-H441, 100 mg/kg pyridazinone, 30 mg/kg quinazoline, alone or combined; for median time until tumor progression: progression = TV change >73%, treatment up to 78 days, CD-1 nude mice
Description: Background: The human NCI-H441 lung model is an c-Met overexpressing tumor model with an activated c-Met pathway. This model carries a kras mutation. Literature data have shown phosphorylation of S6K is present in this tumor model.
as §1, with “week” for “weeks”, “NCI-H441” for “U87-MG”, “78” for “65”, “21,” for “12,”, “volume” for “volume (TV)”

SMILES	median tumor volume (TV) change [1]	median time until tumor progression [1]	median tumor volume change [2]	median time until tumor progression [2]	median tumor volume change [3]	median time until tumor progression [3]
CN1CCC(COc2cnc(-c3cccc(Cn4nc(-c5cccc(C#N)c5)ccc4=O)c3)nc2)CC1.Cl.O [3-(1-{3-[5-(1-Methyl-piperidin-4-ylmethoxy)-pyrimidin-2-yl]-benzyl}-6-oxo-1,6-dihydro-pyridazin-3-yl)-benzonitrile hydrochloride hydrate]	−71%	58 days	35%	24 days	−1%	67 days
NC(=O)c1cccc2c(N[C@H](CN3CCC3)c3ccc(Cl)c(C(F)(F)F)c3)ncnc12 [4-[(S)-2-Azetidin-1-yl-1-(4-chloro-3-trifluoromethyl-phenyl)-ethylamino]-quinazoline-8-carboxylic acid amide]	51%	14 days	36%	24 days	138%	14 days
